Data on five compounds can be found in patent US20030215531A1, “Compositions and methods of use for extracts of Rutaceae plants” (priority 2000, published 2003).

Entries after “also recorded” stand apart in the source; their conditions may differ. Counter-ions that a name gives are not always drawn.

One assay has as its system rats. Briefly: formalin test in rats. The assay is classed as in vivo. An excerpt: The analgesic effects of the extracts of this invention were studied using the formalin test (Dubuisson, D., Dennis, S. G., “The formalin test: a quantitative study of the analgesic effects of morphine, meperidine, and brainstem stimulation in rats and cats,” Pain, 1977, 4, pp. 161-164), a commonly used animal model to study nociceptive processes and analgesic drug effects.
Male Holtzman rats weighing 150-175 g were obtained from Harlan Spraque Dawley (Indianapolis, Ind.) and housed under a 12:12 h light/dark cycle in individual stainless steel cages in a temperature and humidity controlled vivarium. Food and water were available ad libitum. In session one, the animals were allowed to acclimate to the colony room for two days and handled for an additional two days prior to conducting the experiment in order to reduce experimenter-related stress. In session two, animals were allowed to acclimate to the colony room for four days, handled for three days, and acclimated to the apparatus for two days prior to conducting the experiment in order to reduce experimenter-related stress. In both sessions, the animals were food-deprived for 12 h before administering the test articles.
A Plexiglas viewing chamber (30×30×30 cm) was used for data collection.
Naproxen was used as a reference. Samples were tested at a concentration of 100 mg/kg except Formulation J which was tested at 200 mg/kg.
In session one, 10 minutes before the formalin observation period, the formulations were delivered via gavage in a volume of 0.5 ml to obtain a minimum response interval of 30 min between the injection time and the second phase of the formalin response. In session two, formulations were delivered via gavage of 1 ml. Each animal received two formulation dosings before the tests: 70 and 10 minutes before the beginning of the formalin observation period in order to obtain a 90 and 30 min injection intervals before the second phase of the formalin response.
Immediately after administration of 0.05 ml of 2.5% formalin into the hindpaw, rats were placed into 30×30×30 cm Plexiglas observation chamber. The observation session lasted 50 min. A dependent measure was the amount of time in which the injected paw was 1) in a lift position and 2) licked, bitten or shaken across ten 5-min blocks. A composite pain score as a function of ten 5-min blocks was calculated according to the procedures of Watson et al. (Watson, G. S., Sufka, K. J., Coderre, T. J., “Optimal scoring strategies and weights for the formalin test in rats,” Pain, 1997, 70, pp. 53-58). Sample sizes were n=5-6 rats per group. […]
Data were screened for homogeneity of variance and analyzed using repeated measures analysis of variance (ANOVA) and Fisher's LSD procedures.

The test system of a further assay is chicks. Conditions: previous research with this chick model (Watson et al., 1996, 1999); cited from earlier work.

On to `COc1ccc2cc3[n+](cc2c1OC)CCc1cc2c(cc1-3)OCO2` [Formulation K, berberine HCl], for which, in the assay with rats (session 1, 100 mg/kg by gavage 10 min before observation, HCl, 100 mg/kg), the “effect on formalin-induced pain behaviors (CPS), in words” value is on record as “attenuated pain-related behaviors during the second phase; also recorded: reduced pain during the fourth to the tenth time block”.

For `COc1ccc2cc([C@H](C)C(=O)O)ccc2c1` [Naproxen], the “effect on formalin-induced pain behaviors (CPS), in words” value in the assay with rats (session 1, 100 mg/kg by gavage 10 min before observation, 100 mg/kg) is on record as “did not affect pain behaviors”; in the assay on rats (session 1, 100 mg/kg by gavage 10 min before observation, listed as naproxen, 100 mg/kg) it was “had no effect on pain”; in the assay on rats (session 2, two gavage dosings 70 and 10 min before observation, Naproxen 100 mg, Formulation J 200 mg/kg, b186 prints 100 mg/kg) it was “attenuated the second phase of the formalin response”.

As to `Cc1nnc2n1-c1ccc(Cl)cc1C(c1ccccc1)=NC2` [alprazolam], the “ED50 in attenuating separation-induced DVoc” value (“ED50” below) in the assay on chicks is reported as 0.19 mg/kg.

For the compound `CNC1=Nc2ccc(Cl)cc2C(c2ccccc2)=[N+]([O-])C1` [chlorodiazepoxide, chlordiazepoxide], the “ED50” value with chicks is 3.75 mg/kg.

For the compound `O=C1Nc2ccc(Cl)cc2C(c2ccccc2Cl)=NC1O` (stereo not shown) [lorazepam], in the assay on chicks, the “ED50” value is recorded as 0.34 mg/kg.
